Experimental data as given in article PMC8037809, “Biomimetic Chromatographic Studies Combined with the Computational Approach to Investigate the Ability of Triterpenoid Saponins of Plant Origin to Cross the Blood–Brain Barrier” (International Journal of Molecular Sciences, 2021).
Read-outs that look alike come from different tables or passages of the source.

Assays:
[1] = biomimetic chromatography (BMC, IAM, CHOL) with the QSAR equation, compared with computational logBB; conditions: for ability to cross the BBB (conclusion): from biomimetic and computational studies
From the text: To calculate the logBB values for the tested saponins, the QSAR model previously obtained was used. In this QSAR predictive model the BBB penetration potential was correlated with the lipophilic properties (logPow), excess molar refraction (E), the difference between the logarithms of n-octanol/water and cyclohexane/water partition coefficients values (ΔlogP) being the hydrogen-bonding potential:logBB = −0.114 − 0.098 ΔlogP + 0.278 logPow + 0.218E(2)
Chromatographic biomimetic methods, including IAM, BMC, and CHOL, were used to determine BBB permeability of the tested triterpenoid saponins. For this purpose, the values of logkw, being the logarithm of retention factor extrapolated to pure water, were determined. These values were compared with the logBB values calculated in silico and those obtained using the QSAR model (Equation (2)). Logkw is recognized to be an alternative to the logPow lipophilicity descriptor [96]. On the other hand, lipophilicity is one of the most important features influencing the ability of substances to cross biological barriers.
Moreover, for the micellar biomimetic studies (BMC), Foley’s equation [97] (Equation (3)) was used to calculate important physicochemical parameters, i.e., the analyte–micelle association constant (KMA) and the partition coefficient of the analyte between the stationary phase and water (Psw). These parameters can describe possible interactions in the micellar system since the Brij35 micelle can be treated as a simple model of a biological barrier. (3) 1/k= KMA/PSWΦCM+ 1/PSWΦ where k is the retention factor, CM is the concentration of micelles, KMA is the analyte–micelle association constant, PSW is the partition coefficient of the analyte between the stationary phase and water, and Φ is the volume ratio of the stationary phase to the mobile phase volume.
As mentioned above the logkw parameter, obtained from the biomimetic chromatographic systems, is recognized to be an alternative to the logarithm of the n-octanol/water partition coefficient (logPow) lipophilicity descriptor. Therefore, logkw-BMC, logkw-IAM, and logkw-CHOL values were used for the calculation of logBB based on the QSAR equation (Equation (2)), instead of the logPow parameter. The values of logBB-BMC, logBB-IAM, and logBB-CHOL were thus calculated. In Figure 2 the above-mentioned logBB values and logBB in silico calculated using the ACD/Percepta software, as well as those of logKMA that can be treated as an equivalent to the logBB parameter, are presented.
The solutions of analytical standards of the studied triterpenoid saponins were prepared in methanol (Merck, Darmstadt, Germany; p.a.) at a concentration of 1 mg/mL. […] In the research each system was optimized previously. In the IAM and CHOL studies, acetonitrile-phosphate buffer solutions (0.3; 0.4; 0.5; 0.6 v/v; pH 7.4) were used as mobile phases. In the case of BMC analysis, the buffered solution of Brij35 (0.075; 0.1; 0.125; 0.15 mol/dm^3; pH 7.4) was used as the mobile phase with the addition of isopropanol as an organic modifier (7% v/v). The buffer was prepared from the solutions of Na2HPO4 and citric acid (0.01 mol/dm^3) and the pH 7.4 value was fixed before the preparation of the mobile phases.
The following stationary phases were employed: IAM.PC.DD2 100 × 4.6 mm i.d., 10 µm (Regis Chemicals Company, Morton Grove, IL, USA); Cosmosil Cholester, 75 × 2 mm i.d., 2.5 µm (Genore, Warsaw, Poland); Purosphere RP-18e (ODS), 125 × 4 mm i.d., 5 µm (Merck, Darmstadt, Germany). The flow rates were established as follows: 1.3 mL/min (IAM), 0.4 mL/min (CHOL), and 1 mL/min (BMC). The tested saponins were detected with UV light at 254 nm. All measurements were made at 25 °C. The dead time values were measured from the non-retained compound (citric acid) peaks. All reported logkw values are the average of at least three independent measurements.

[2] = test system: memory deficits and anxiety induced by Aβ25-35; conditions: rats, Aβ25-35 into the lateral ventricles; cited from earlier work
[3] = design: method as in doi:10.1556/1326.2017.00147; conditions: rat, intragastric administration of the extract, postmortem; cited from earlier work
[4] = design: method as in earlier work; conditions: experimentally obtained; QSAR training and test sets; cited from earlier work
[5] = test system: hippocampal CA1 region pyramidal neurons; design: method as in PMID 19433075; conditions: ischemia/reperfusion; cited from earlier work
[6] = test system: ethanol-induced memory impairment; design: method as in PMID 18521966; conditions: mice; cited from earlier work

Row | Structure (SMILES) | logBB [4] | further results
1 | CC1(C)CCC2(C(=O)OC3OC(COC4OC(CO)C(O)C(O)C4O)C(O)C(O)C3O)CCC3(C)C(=CCC4C5(C)CCC(OC6OCC(O)C(O)C6O)C(C)(CO)C5CCC43C)C2C1 (stereo not shown) [Akebia saponin D] |  | ability to cross the BBB (conclusion) [1]: can penetrate the BBB; effect on memory deficits and anxiety symptoms [2]: could significantly ameliorate the memory deficits and anxiety symptoms
2 | CC1(C)CC[C@]2(C(=O)O)CC[C@]3(C)C(=CC[C@@H]4[C@@]5(C)C[C@@H](O)[C@H](O)C(C)(C)[C@@H]5CC[C@]43C)[C@@H]2[C@@H]1O [Arjunic acid] |  | ability to cross the BBB (conclusion) [1]: can penetrate the BBB; presence in brain tissues [3]: present in rat brain tissues
3 | CNC(C)CC1CCCCC1 (stereo not shown) [101-40-6] | 1.08 | 
4 | Cc1ccccc1NC1=NCCN1 [36318-56-6] | 0.04 | 
5 | CN1CC[C@]23c4c5ccc(O)c4O[C@H]2[C@@H](O)C=C[C@H]3[C@H]1C5.Cl [52-26-6] | –0.16 | 
6 | CN(C)C(=O)C(CCN1CCC(O)(c2ccc(Cl)cc2)CC1)(c1ccccc1)c1ccccc1 [53179-11-6] | 0.77 | 
7 | CN1C(=O)CN=C(c2ccccc2)c2cc(Cl)ccc21 [439-14-5] | 0.56 | 
8 | O=C(CCC1CCN(Cc2ccccc2)CC1)c1ccc2c(c1)NCCCC2 [142852-50-4] | 1.14 | 
9 | Brc1cc(Br)c(NC2=NCCN2)c(Br)c1 [38941-33-2] | 0.58 | 
10 | Clc1ccc(NC2=NCCN2)c(Cl)c1 [23830-88-8] | 0.16 | 
11 | CC(C)=C[C@H]1C[C@](C)(O)[C@@H]2[C@H]3CC[C@@H]4[C@@]5(C)CC[C@H](O[C@@H]6O[C@H](CO)[C@@H](O)[C@H](O[C@@H]7O[C@H](CO)[C@@H](O)[C@H](O)[C@H]7O)[C@H]6O[C@@H]6O[C@@H](CO)[C@H](O)[C@H]6O)C(C)(C)[C@@H]5CC[C@@]4(C)[C@@]34CO[C@@]2(C4)O1 [Bacoside A] |  | ability to cross the BBB (conclusion) [1]: can penetrate the BBB
12 | Cc1cc(Cl)ccc1NC1=NCCN1 [4201-26-7] | 0.14 | 
13 | CC(C)NCC(O)COc1ccc(CC(N)=O)cc1 (stereo not shown) [29122-68-7] | –1 | 
14 | Cc1ccc(Cc2cnc(NCCSCc3ccc(CN(C)C)o3)[nH]c2=O)cn1 [83903-06-4] | –1.06 | 
15 | COc1ccc2nc([S+]([O-])Cc3ncc(C)c(OC)c3C)[nH]c2c1 (stereo not shown) [73590-58-6] | –0.82 | 
16 | C=CCC1(C(C)CCC)C(=O)NC(=O)NC1=O (stereo not shown) [76-73-3] | 0.2 | 
17 | CC(C)NCC(O)COc1ccc(CCOCC2CC2)cc1 (stereo not shown) [63659-18-7] | 0.39 | 
18 | Cc1c(O)cccc1C(=O)N[C@@H](CSc1ccccc1)[C@H](O)CN1C[C@H]2CCCC[C@H]2C[C@H]1C(=O)NC(C)(C)C [159989-64-7] | –0.93 | 
19 | C[C@@H]1O[C@@H](O[C@H]2[C@H](OC(=O)[C@]34CCC(C)(C)C[C@H]3C3=CC[C@@H]5[C@@]6(C)C[C@H](O)[C@H](O[C@@H]7O[C@H](CO)[C@@H](O)[C@H](O)[C@H]7O)C(CO)(CO)[C@@H]6CC[C@@]5(C)[C@]3(C)C[C@H]4O)OC[C@H](O)[C@@H]2O)[C@H](O)[C@H](O)[C@H]1O[C@@H]1OC[C@@H](O)[C@H](O[C@@H]2OC[C@](O)(CO)[C@H]2O)[C@H]1O [Platycodin D] |  | average logBB ([1]; average of all obtained logBB values (biomimetic and computational)): −1.681; ability to cross the BBB (conclusion) [1]: does not cross this barrier; logBB ([1]; span of the obtained values over the methods): −2 to −1.29; protection from ischemic damage [5]: protects the hippocampal CA1 region pyramidal neurons from an ischemic damage; effect on ethanol-induced memory impairment [6]: could improve ethanol-induced memory impairment
